The results in this text go back to patent publication US20110130380A1, “Heteroaryl Kinase Inhibitors” (priority 2009, published 2011).

For this experiment, the target named is Cdk9/cyclinT1 (Homo sapiens, UniProt P50750). As to the kind of experiment: Cdk9/cyclinT1 IMAP Protocol (fluorescence polarization kinase assay). The note with it: Cdk9_cyclinT1_IC50, Table V; generated using one of the two Cdk9/cyclinT1 assays (IMAP or Alpha Screen), not stated which; ATP 6 uM.
Cdk9/cyclinT1, sequence (P50750 whole entry): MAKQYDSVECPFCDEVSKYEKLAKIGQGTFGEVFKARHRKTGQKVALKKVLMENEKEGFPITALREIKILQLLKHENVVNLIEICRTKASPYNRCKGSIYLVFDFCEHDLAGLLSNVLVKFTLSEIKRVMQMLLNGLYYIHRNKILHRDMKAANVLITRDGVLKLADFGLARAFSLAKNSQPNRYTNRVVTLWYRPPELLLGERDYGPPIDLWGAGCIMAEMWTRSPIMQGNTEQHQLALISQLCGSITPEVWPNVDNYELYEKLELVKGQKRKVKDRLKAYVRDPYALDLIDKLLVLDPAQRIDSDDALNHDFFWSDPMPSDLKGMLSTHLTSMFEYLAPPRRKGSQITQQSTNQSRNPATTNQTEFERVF
Cdk9/cyclinT1, sequence (O60563 whole entry partner): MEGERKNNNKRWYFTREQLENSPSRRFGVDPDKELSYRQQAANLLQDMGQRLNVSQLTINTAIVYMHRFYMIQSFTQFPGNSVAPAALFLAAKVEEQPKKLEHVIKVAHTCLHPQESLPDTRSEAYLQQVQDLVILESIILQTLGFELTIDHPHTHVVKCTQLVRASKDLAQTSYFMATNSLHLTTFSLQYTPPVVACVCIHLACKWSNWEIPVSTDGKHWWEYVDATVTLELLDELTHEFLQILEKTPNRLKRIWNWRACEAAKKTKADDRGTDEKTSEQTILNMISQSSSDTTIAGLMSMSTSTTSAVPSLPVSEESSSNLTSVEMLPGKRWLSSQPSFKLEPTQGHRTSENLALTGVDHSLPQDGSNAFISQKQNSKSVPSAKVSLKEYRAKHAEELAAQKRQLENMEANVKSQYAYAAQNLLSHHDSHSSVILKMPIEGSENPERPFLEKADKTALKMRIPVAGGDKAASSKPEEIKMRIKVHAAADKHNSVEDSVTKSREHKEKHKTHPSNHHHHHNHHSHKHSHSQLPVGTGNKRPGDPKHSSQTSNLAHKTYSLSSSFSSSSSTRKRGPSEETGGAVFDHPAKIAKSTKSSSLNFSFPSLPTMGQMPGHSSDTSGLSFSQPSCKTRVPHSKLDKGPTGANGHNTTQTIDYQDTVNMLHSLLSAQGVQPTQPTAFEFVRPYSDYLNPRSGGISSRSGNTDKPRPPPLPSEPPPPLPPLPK

Consider `CC(C)C(=O)Nc1cc(-c2cccc(NCC3CCOCC3)n2)c(Cl)cn1` [Example 70, N-{5′-Chloro-6-[(tetrahydro-pyran-4-ylmethyl)-amino]-[2,4]bipyridinyl-2′-yl}-isobutyramide], for which half-maximal inhibition (IC50) required 11 nM.
Regarding `O=C(Nc1cc(-c2cccc(NCC3CCOCC3)n2)c(Cl)cn1)c1cccnc1` [Example 71, N-{5′-Chloro-6-[(tetrahydro-pyran-4-ylmethyl)-amino]-[2,4′]bipyridinyl-2′-yl}-nicotinamide], the IC50 – broadly, the concentration at which inhibition is half-maximal – stood at 56 nM.
In the case of `CC(C)(C)C(=O)Nc1cc(-c2cccc(NCC3CCOCC3)n2)c(Cl)cn1` [Example 72, N-{5′-Chloro-6-[(tetrahydro-pyran-4-ylmethyl)-amino]-[2,4′]bipyridinyl-2′-yl}-2,2-dimethyl-propionamide] it was 40 nM; in that of `O=C(Nc1cc(-c2cccc(NCC3CCOCC3)n2)c(Cl)cn1)[C@H]1CCNC1` [Example 73, (S)-Pyrrolidine-3-carboxylic acid {5′-chloro-6-[(tetrahydro-pyran-4-ylmethyl)-amino]-[2,4′]bipyridinyl-2′-yl}-amide], 13 nM.
Under `O=C(Nc1cc(-c2ccc(Cl)c(NCC3CCOCC3)n2)c(Cl)cn1)[C@@H]1CCCNC1` [Example 74, (R)-Piperidine-3-carboxylic acid {5,5′-dichloro-6-[(tetrahydro-pyran-4-ylmethyl)-amino]-[2,4′]bipyridinyl-2′-yl}-amide] stands less than 8 nM; under `O=C(Nc1cc(-c2nc(NCC3CCOCC3)ccc2Cl)c(Cl)cn1)[C@@H]1CCCNC1` [Example 75], less than 8 nM; under `C[C@@H](Nc1cccc(-c2cc(NC(=O)[C@@H]3CCCNC3)ncc2Cl)n1)C1CCCCC1` [Example 76, (R)-Piperidine-3-carboxylic acid [5′-chloro-6-((R)-1-cyclohexyl-ethylamino)-[2,4′]bipyridinyl-2′-yl]-amide], 15 nM.
In the case of `C[C@H](Nc1cccc(-c2cc(NC(=O)[C@@H]3CCCNC3)ncc2Cl)n1)C1CCCCC1` [Example 77, (R)-Piperidine-3-carboxylic acid [5′-chloro-6-((S)-1-cyclohexyl-ethylamino)-[2,4′]bipyridinyl-2′-yl]-amide] it was 8 nM; in that of `O=C(Nc1cc(-c2cccc(NCc3cc(F)cc(F)c3)n2)c(Cl)cn1)[C@@H]1CCCNC1` [Example 80, (R)-Piperidine-3-carboxylic acid [5′-chloro-6-(3,5-difluoro-benzylamino)-[2,4′]bipyridinyl-2′-yl]-amide], less than 8 nM; in that of `CS(=O)(=O)N1CCC[C@H](C(=O)Nc2cc(-c3cccc(NCC4CCCOC4)n3)c(Cl)cn2)C1` (stereo partly drawn) [Example 81, (S)-1-Methanesulfonyl-piperidine-3-carboxylic acid {5′-chloro-6-[(tetrahydro-pyran-3-ylmethyl)-amino]-[2,4′]bipyridinyl-2′-yl}-amide], less than 8 nM.
Compound `CC(=O)N1CCC[C@@H](C(=O)Nc2cc(-c3cccc(NCC4CCOCC4)n3)c(Cl)cn2)C1` [Example 82, (R)-1-acetyl-piperidine-3-carboxylic acid {5′-chloro-6-[(tetrahydro-pyran-4-ylmethyl)-amino]-[2,4′]bipyridinyl-2′-yl}-amide] displayed an IC50 of 631 nM.
In turn, `CS(=O)(=O)N1CCC[C@@H](C(=O)Nc2cc(-c3cccc(NCC4CCOCC4)n3)c(Cl)cn2)C1` [Example 83, (R)-1-Methanesulfonyl-piperidine-3-carboxylic acid {5′-chloro-6-[(tetrahydro-pyran-4-ylmethyl)-amino]-[2,4′]bipyridinyl-2′-yl}-amide] registered an IC50 of 482 nM.
Under `COC(=O)N1CCC[C@@H](C(=O)Nc2cc(-c3cccc(NCC4CCOCC4)n3)c(Cl)cn2)C1` [Example 84, (R)-3-{5′-Chloro-6-[(tetrahydro-pyran-4-ylmethyl)-amino]-[2,4′]bipyridinyl-2′-ylcarbamoyl}-piperidine-1-carboxylic acid methyl ester] stands 419 nM.
